Measured values as given in patent US20260315436A1, “METHOD OF TREATING DISORDERS WITH SURF1 MALFUNCTION” (Cure Mito Foundation, priority 2023, published 2026).
“Also recorded” adds a separate entry of the source.

Assays:
[1] = test system: GM28010 SURF1 mutant fibroblasts; assay: Seahorse mitochondrial stress test, fibroblast cell line GM28010 (Experiment 1, single compounds); type: cell-based, human; details: 48 h; for ATP-linked respiration / basal respiration: galactose-cultured cells; for increase in ATP-linked respiration / increase in maximal respiration: both glucose and galactose-cultured cells
Protocol: (§1) In order to evaluate selected compounds' impact on mitochondrial function in patient-derived fibroblasts compared to controls, three seahorse assays were conducted, Exp. 1: Fibroblast cell line GM28010—single compounds; Exp. 2. Fibroblast cell line GM28010—combination of compounds+ Single compounds; and Exp. 3: Fibroblast cell line GM28012—single compounds. Seahorse XF24 Extracellular Flux Analyzers continuously measure oxygen concentration and proton flux in the cell supernatant over time (Wu et al., 2007). The oxygen concentration and proton flux measurements are converted in OCR and ECAR values. This enables a direct quantification of mitochondrial respiration and glycolysis. The aim of the seahorse assays is to evaluate the impact of selected compounds on mitochondrial function in patient-derived fibroblasts compared to controls. Compounds used in the seahorse assays include posacanazole, sertaconazole, glabridin, zinglibroside (ginsenoside Z R1), AM281, cysteamine bitrartate, PF-06447475, losmapimod, telepravir, miltefosine, incyclinide, poziotinib, and methylene blue.
Fibroblast cell line GM28010 is a primary human fibroblast cell line obtained from patients with SURF1 Leigh syndrome. It was purchased from the Coriell Cell Repositories (Camden, NJ, repository number GM28010). Cell line GM00038 was used as a healthy control for GM28010 and is a primary human fibroblast purchased from the Coriell Cell Repositories (Camden, NJ, repository number GM00038).
Fibroblasts were grown in glucose according to recommendation.
Cells were plated in XF96 plates in culture medium and were plated at 10,000 cells/well.
The day after plating, cells were treated with the compounds in Table 1. The treatments were completed in glucose medium and galactose medium. The compounds were tested at for 48 hours. The compounds were incubated at (37 C, 5% CO2) until the day of the experiment.
*Fibroblasts were run at passage numbers: GM28010 SURF1 Fibroblasts P5; GM00038F controls P9.
• Assay Medium: 10 mM glucose or galactose DMEM supplemented with 2 mM glutamine and 1 mM pyruvate. • Injection Ports for basal glucose: Port A: 2 μM oligomycin; Port B: 2.5 μM FCCP; Port C: 4 μM FCCP; and Port D: 2 μM rotenone and antimycin A.
Data were normalized to cell number per well after the run. The Hoechst-stained nuclei were counted with the Operetta High-Content Imager.
(§2) • Basal Oxygen Consumption (OCR): This reflects the cellular oxygen usage under basal conditions, encompassing both energy production (ATP turnover) and background oxygen leak from the mitochondria. • Oligomycin Injection: Oligomycin is a compound that inhibits ATP synthase, an enzyme crucial for ATP production within mitochondria. • Oligomycin-resistant Respiration: After oligomycin injection, minimal oxygen consumption persists, representing non-ATP linked oxygen leak from the mitochondria, often termed proton leak. • ATP-linked Respiration: This value is derived by subtracting the oligomycin-resistant respiration from the basal OCR. It signifies the oxygen consumption specifically linked to ATP production through mitochondrial oxidative phosphorylation. • Mitochondrial Bioenergetic Efficiency: This parameter reflects the percentage decrease in oxygen consumption observed after oligomycin injection, indicating the mitochondria's efficiency in utilizing oxygen for ATP generation. • FCCP Injection: FCCP is a chemical that disrupts the link between mitochondrial electron transport and ATP production. • Maximal Respiration: Following FCCP injection, the highest oxygen consumption rate is measured, representing the maximum capacity of the mitochondria to utilize oxygen for respiration. • Spare Respiratory Capacity: This parameter is calculated by subtracting basal respiration from maximal respiration.

[2] = test system: GM28012 SURF1 fibroblasts; assay: Seahorse mitochondrial stress test, fibroblast cell line GM28012 (Experiment 3, single compounds); type: cell-based, human; details: 48 h; for increase in respiration compared with GM28010: GM28012 vs GM28010; for total ATP: highest concentration (10 uM)
Protocol: as §1, §2
GM28010 primary human fibroblasts obtained from patients with SURF1 Leigh syndrome were purchased from the Coriell Cell Repositories (Camden, N.J.; repository number GM28010).
GM00038 primary human fibroblasts purchased from the Coriell Cell Repositories (Camden, N.J., repository number GM00038) and were used as a healthy control.
Fibroblasts were grown in glucose according to recommendation. Cells were plated in XF96 plates in culture medium and plated at 10,000 cells/well. The day after plating, the cells were treated with the compounds. The treatments completed in glucose medium and galactose medium. The compounds were tested at for 48 hours. The compounds were incubated at (37 C, 5% CO2) until the day of the experiment. The fibroblasts were run at passage numbers: GM28012 SURF1 Fibroblasts P5.
The assay medium was 10 mM glucose or galactose DMEM supplemented with 2 mM glutamine and 1 mM pyruvate. Injection Ports for basal glucose: Port A: 2 μM oligomycin; Port B: 2.5 μM FCCP; Port C: 4 μM FCCP; and Port D: 2 μM rotenone and antimycin A.
The data were normalized to cell number per well after the run. The Hoechst-stained nuclei were counted with a Operetta High-Content Imager.

[3] = glucose and galactose conditions
[4] = 10 μM, listed as Ginsenoside Z R1 (Zinglibroside)
[5] = glucose and galactose conditions, listed as glabridin
[6] = glucose-cultured cells, listed as incyclinide
[7] = glucose and galactose conditions, listed as miltefosine
[8] = glucose and galactose conditions, listed as Posacanazole
[9] = glucose-cultured cells, listed as Telepravir

Compound: Cc1c(C(=O)NN2CCOCC2)nn(-c2ccc(Cl)cc2Cl)c1-c1ccc(I)cc1 [AM281]
- ATP production through glycolysis ([1]; 5 and 10 μM): increase in ATP production primarily through glycolysis
- respiration [1, 3]: did not result in major changes
- ATP production rates [2]: increased ATP production rates
- ATP via glycolysis ([2]; 1 μM and 5 μM): OCR. ↑ATP via glycolysis @
- maximal respiration (maximal OCR) [2, 3]: dose-dependent decreased maximal respiration

Compound: CC1(C)CC[C@]2(C(=O)O)CC[C@]3(C)C(=CC[C@@H]4[C@@]5(C)CC[C@H](O[C@@H]6O[C@H](C(=O)O)[C@@H](O)[C@H](O)[C@H]6O[C@@H]6O[C@H](CO)[C@@H](O)[C@H](O)[C@H]6O)C(C)(C)[C@@H]5CC[C@]43C)[C@@H]2C1 [Ginsenoside Z R1]
- ATP production through OXPHOS [1, 4]: increase in ATP production
- ATP production through glycolysis [1, 4]: increase in ATP production
- ATP production through OXPHOS ([1]; 10 μM, listed as Zinglibroside): both conditions: ↑ATP via
- ATP production through glycolysis ([1]; 10 μM, listed as Zinglibroside): both conditions: ↑ATP via
- ATP production through OXPHOS ([1]; 10 μM, listed as zinglibroside): increase in ATP production
- ATP production through glycolysis ([1]; 10 μM, listed as zinglibroside): increase in ATP production
- maximal respiration [1, 3]: did not result in changes
- ATP production through OXPHOS [2]: increase in ATP production
- ATP production through glycolysis [2]: increase in ATP production
- ATP production through OXPHOS ([2]; 1 μM): increased ATP production through OXPHOS
- total ATP production rate ([2]; 1 μM): increased ATP production through OXPHOS and total ATP production rate
- maximal respiration (maximal OCR) [2, 3]: did not result in changes

Compound: CC1(C)C=Cc2c(ccc3c2OC[C@@H](c2ccc(O)cc2O)C3)O1 [Glabridin, glabridin]
- respiration [1, 3]: did not result in major changes
- respiration [1, 5]: did not result in major changes
- maximal respiration (maximal OCR) [2, 3]: ↓ maximal OCR in both
- maximal respiration (maximal OCR) [2, 5]: decreased maximal respiration

Compound: NC(=O)C1=C(O)C[C@@H]2C[C@@H]3Cc4cccc(O)c4C(=O)C3=C(O)[C@]2(O)C1=O [Incyclinide, incyclinide]
- ATP-linked respiration [1]: ↑ basal respiration and ATP-
- basal respiration [1]: ↑ basal respiration and ATP-
- ATP-linked respiration ([1]; listed as incyclinide): some increase
- basal respiration ([1]; listed as incyclinide): some increase
- all respiratory parameters measured ([1]; glucose-cultured cells): dose-dependent decrease
- toxicity ([1]; glucose-cultured cells): Toxicity in glucose
- toxicity [1, 6]: some toxicity
- all respiratory parameters measured ([2]; glucose-cultured cells): dose-dependent decrease
- toxicity ([2]; glucose-cultured cells): Toxicity observed in glucose
- toxicity [2, 6]: showed toxicity

Compound: Cc1c(F)cc(C(=O)NC2CC2)cc1-c1ccc(C(=O)NCC(C)(C)C)cn1 [Losmapimod, losmapimod]
- ATP production through glycolysis [1]: conditions. ↓ ATP production
- increase in ATP-linked respiration [1]: 12-15% increases in
- increase in maximal respiration [1]: 12-15% increases in
- increase in ATP-linked respiration ([1]; listed as losmapimod): 12-15%
- increase in maximal respiration ([1]; listed as losmapimod): 12-15%
- respiration [1, 3]: Increased respiration
- increase in respiration ([1]; glucose and galactose culture conditions): up to 15%
- ATP production through glycolysis ([1]; listed as losmapimod): decrease in ATP production through glycolysis
- ATP production through OXPHOS [2]: Increased ATP-linked respiration and ATP production through OXPHOS
- ATP production through glycolysis [2]: glucose-cultured cells. ↓ATP
- total ATP production rate [2]: without changes; also recorded: maintained
- increase in respiration compared with GM28010 [2]: did not increase respiration as much
- increase in respiration compared with GM28010 ([2]; listed as losmapimod): not as impressive as was observed in GM28010
- ATP-linked respiration ([2]; glucose-cultured cells, listed as losmapimod): increased in ATP-linked respiration
- ATP production through glycolysis ([2]; listed as losmapimod): decrease in ATP production through glycolysis
- total ATP production rate ([2]; listed as losmapimod): maintained
- ATP-linked respiration ([2]; medium not stated): Increased ATP-linked respiration

Compound: CCCCCCCCCCCCCCCCOP(=O)([O-])OCC[N+](C)(C)C [Miltefosine, miltefosine]
- respiration [1, 7]: did not result in major changes
- ATP production through glycolysis [2]: both conditions; ↑ in ATP
- respiration [2, 7]: did not result in major changes
- ATP production through glycolysis ([2]; listed as miltefosine): increase in ATP production through glycolysis

Compound: N#Cc1cccc(-c2c[nH]c3ncnc(N4CCOCC4)c23)c1 [PF-06447475]
- ATP production through OXPHOS [1]: increase in ATP production; also recorded: both conditions. ↑ ATP
- ATP production through glycolysis [1]: increase in ATP production; also recorded: both conditions. ↑ ATP
- maximal respiration [1, 3]: did not result increase maximal respiration; also recorded: did not result in an increase
- ATP production through glycolysis [2]: increase in ATP production glycolysis; also recorded: both conditions. ↑ ATP
- total ATP production rate ([2]; 1 μM): increased the total ATP Production rate
- maximal respiration (maximal OCR) [2, 3]: did not result increase maximal respiration

Compound: CC[C@@H]([C@H](C)O)n1ncn(-c2ccc(N3CCN(c4ccc(OC[C@@H]5CO[C@@](Cn6cncn6)(c6ccc(F)cc6F)C5)cc4)CC3)cc2)c1=O [Posaconazole, posaconazole]
- toxicity ([1]; all concentrations): toxic at all conc
- respiration [1, 3]: did not result in major changes
- respiration [1, 8]: ↓ respiration
- respiration ([1]; higher concentrations): decreased respiration
- total ATP production rate [2]: compensation with increased glycolysis
- respiration [2, 3]: decreased respiration
- respiration [2, 8]: ↓ respiration, total ATP rate
- total ATP [2]: total ATP drops
- total ATP ([2]; listed as Posacanazole): (10 uM) where ATP drops
- total ATP production rate ([2]; listed as Posacanazole): compensated by glycolysis

Compound: C=CC(=O)N1CCC(Oc2cc3c(Nc4ccc(Cl)c(Cl)c4F)ncnc3cc2OC)CC1 [Poziotinib, poziotinib]
- respiration ([1]; glucose and galactose conditions, listed as poziotinib): did not result in major changes
- glycolysis ([1]; glucose-cultured cells): dose-dependent decrease
- maximal respiration ([1]; glucose-cultured cells): dose-dependent decrease
- toxicity ([1]; glucose-cultured cells): some toxicity
- ATP production through glycolysis ([1]; listed as poziotinib): decrease ATP production through glycolysis

Compound: CCC[C@H](NC(=O)[C@@H]1[C@H]2CCC[C@H]2CN1C(=O)[C@@H](NC(=O)[C@@H](NC(=O)c1cnccn1)C1CCCCC1)C(C)(C)C)C(=O)C(=O)NC1CC1 [Telaprevir, telaprevir]
- respiration [1, 3]: did not result in major changes
- ATP production through OXPHOS [2]: Dose-dependent increase
- total ATP production rate [2]: without changes
- respiration ([2]; galactose conditions): did not result in major changes
- ATP production through OXPHOS ([2]; glucose): dose-dependent increase
- ATP-linked respiration ([2]; glucose-cultured cells): dose-dependent increase
- maximal respiration ([2]; glucose-cultured cells): without any changes
- ATP-linked respiration [2, 9]: dependent ↑ATP-Linked
- maximal respiration [2, 9]: through OXPHOS, no change
- ATP production through OXPHOS ([2]; glucose, listed as Telepravir): dependent ↑ATP-Linked
